Assay results: the NIST ThermoML archive (doi:10.1021/je7007582)
Numbers after ± are expanded uncertainties.

Details: Liquid; for mass density: 298.15 K, 101.33 kPa, Pycnometric method; for Normal boiling temperature: Ebulliometric method (Recirculating still)

Row | SMILES | mass density [kg/m3] | Normal boiling temperature [°C]
1 | CC(C)CO [2-methyl-1-propanol] | 797.8 ± 0.7 | 107.77 ± 0.05
2 | CCC(C)O (stereo not drawn) [butan-2-ol] | 802.3 ± 0.7 | 99.48 ± 0.05
3 | CO [methanol] | 786.6 ± 0.7 | 64.49 ± 0.05
4 | CCCO [propan-1-ol] | 799.6 ± 0.7 | 97.06 ± 0.05
5 | CC(C)O [propan-2-ol] | 780.8 ± 0.7 | 82.2 ± 0.05

More lines, now with the values ahead:

Row | mass density [kg/m3] | Normal boiling temperature [°C] | SMILES
6 | 805.7 ± 0.7 |  | CCCCO [butan-1-ol]
7 | 785.2 ± 0.7 | 78.31 ± 0.05 | CCO [ethanol]
